Experiment [1] has as its target wild-type un-phosphorylated FGFR3 (Homo sapiens, UniProt P22607). The experiment can be described thus: FGFR Enzymatic Assay (FRET peptide phosphorylation), FGFR3.
Method: The inhibitor potency of the exemplified compounds was determined in an enzyme discontinuous assay that measures peptide phosphorylation using FRET measurements to detect product formation. Inhibitors were serially diluted in DMSO and a volume of 0.2 μL was transferred to the wells of a 384-well plate. […] Appropriate controls (enzyme blank and enzyme with no inhibitor) were included on the plate. […] The 10 μL/well reaction concentration of the peptide substrate was 500 nM whereas the ATP concentration was maintained near or below the ATP Km. The ATP Km values were pre-determined in a separate series of experiments. The reaction plate was incubated at 25° C. for 1 hr and the reactions were ended with the addition of 5 μL/well of quench solution (50 mM Tris, 150 mM NaCl, 0.5 mg/mL BSA, pH 7.8; 45 mM EDTA, 600 nM staurosporin, with Perkin Elmer Lance Reagents at 3.75 nM Eu-antibody PY20 and 180 nM APC-Streptavidin). The plate was allowed to equilibrate for ˜10 minutes at ambient temperature before scanning on a PheraStar plate reader (BMG Labtech) instrument.
Either GraphPad prism or XLfit was used to analyze the data. The IC50 values were derived by fitting the data to a four parameter logistic equation producing a sigmoidal dose-response curve with a variable Hill coefficient. Prism equation: Y=Bottom+(Top-Bottom)/(1+10^((Log IC50-X)*Hill slope)); XLfit equation: Y=(A+((B−A)/(1+((X/C)^D)))) where X is the logarithm of inhibitor concentration and Y is the response.
GraphPad prism3 was used to analyze the data. The IC50 values were derived by fitting the data to the equation for a sigmoidal dose-response with a variable slope. Y=Bottom+(Top-Bottom)/(1+10^((Log IC50-X)*Hill Slope)) where X is the logarithm of concentration and Y is the response.
Experiment [2] addresses wild-type un-phosphorylated FGFR4 (Homo sapiens, UniProt P22455). The experiment can be described thus: FGFR Enzymatic Assay (FRET peptide phosphorylation), FGFR4.
Experiment [3] has as its target wild-type un-phosphorylated FGFR1 (Homo sapiens, UniProt P11362). Put plainly: FGFR Enzymatic Assay (FRET peptide phosphorylation), FGFR1. Particulars: pre-incubated for 4 hours.
The target in experiment [4] is wild-type un-phosphorylated FGFR2 (Homo sapiens, UniProt P21802). The experiment can be described thus: FGFR Enzymatic Assay (FRET peptide phosphorylation), FGFR2.
wild-type un-phosphorylated FGFR2, sequence (P21802 22-821): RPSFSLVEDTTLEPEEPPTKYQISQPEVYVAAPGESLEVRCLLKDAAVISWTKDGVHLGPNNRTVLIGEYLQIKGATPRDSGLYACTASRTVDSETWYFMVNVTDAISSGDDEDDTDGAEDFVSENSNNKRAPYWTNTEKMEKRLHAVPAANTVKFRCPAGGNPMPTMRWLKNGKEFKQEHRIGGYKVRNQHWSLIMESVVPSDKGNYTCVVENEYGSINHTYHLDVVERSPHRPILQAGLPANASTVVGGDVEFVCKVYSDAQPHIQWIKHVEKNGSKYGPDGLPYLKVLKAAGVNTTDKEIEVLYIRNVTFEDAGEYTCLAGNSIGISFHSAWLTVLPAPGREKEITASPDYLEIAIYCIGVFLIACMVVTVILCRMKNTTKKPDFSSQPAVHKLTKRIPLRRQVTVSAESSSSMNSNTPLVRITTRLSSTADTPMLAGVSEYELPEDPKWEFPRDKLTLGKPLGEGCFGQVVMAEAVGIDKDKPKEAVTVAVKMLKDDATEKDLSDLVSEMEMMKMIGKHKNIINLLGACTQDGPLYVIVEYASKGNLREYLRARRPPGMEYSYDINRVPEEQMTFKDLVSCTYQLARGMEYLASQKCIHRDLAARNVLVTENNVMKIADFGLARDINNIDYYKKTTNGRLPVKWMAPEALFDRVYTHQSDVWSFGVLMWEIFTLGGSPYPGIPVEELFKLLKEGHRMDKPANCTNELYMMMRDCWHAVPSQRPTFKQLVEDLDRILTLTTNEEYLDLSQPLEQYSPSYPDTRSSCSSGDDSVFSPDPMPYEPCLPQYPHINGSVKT
The mark [5] stands for this setting: read-out: FGFR4, wild-type un-phosphorylated FGFR4, pre-incubated for 4 hours.
[6] abbreviates: read-out: FGFR1, wild-type un-phosphorylated FGFR1.
Where [7] appears, read: FGFR1, wild-type un-phosphorylated FGFR1.
Where [8] appears, read: read-out: FGFR2, wild-type un-phosphorylated FGFR2, pre-incubated for 4 hours.

Among the data in patent US12083124B2 (Incyte Corporation, priority 2019, dated 2024) are IC50 values, retold here.

SMILES strings stand for the structures. Like-named read-outs stand apart in the source and are kept apart here.

wild-type un-phosphorylated FGFR1, sequence (P11362 22-822): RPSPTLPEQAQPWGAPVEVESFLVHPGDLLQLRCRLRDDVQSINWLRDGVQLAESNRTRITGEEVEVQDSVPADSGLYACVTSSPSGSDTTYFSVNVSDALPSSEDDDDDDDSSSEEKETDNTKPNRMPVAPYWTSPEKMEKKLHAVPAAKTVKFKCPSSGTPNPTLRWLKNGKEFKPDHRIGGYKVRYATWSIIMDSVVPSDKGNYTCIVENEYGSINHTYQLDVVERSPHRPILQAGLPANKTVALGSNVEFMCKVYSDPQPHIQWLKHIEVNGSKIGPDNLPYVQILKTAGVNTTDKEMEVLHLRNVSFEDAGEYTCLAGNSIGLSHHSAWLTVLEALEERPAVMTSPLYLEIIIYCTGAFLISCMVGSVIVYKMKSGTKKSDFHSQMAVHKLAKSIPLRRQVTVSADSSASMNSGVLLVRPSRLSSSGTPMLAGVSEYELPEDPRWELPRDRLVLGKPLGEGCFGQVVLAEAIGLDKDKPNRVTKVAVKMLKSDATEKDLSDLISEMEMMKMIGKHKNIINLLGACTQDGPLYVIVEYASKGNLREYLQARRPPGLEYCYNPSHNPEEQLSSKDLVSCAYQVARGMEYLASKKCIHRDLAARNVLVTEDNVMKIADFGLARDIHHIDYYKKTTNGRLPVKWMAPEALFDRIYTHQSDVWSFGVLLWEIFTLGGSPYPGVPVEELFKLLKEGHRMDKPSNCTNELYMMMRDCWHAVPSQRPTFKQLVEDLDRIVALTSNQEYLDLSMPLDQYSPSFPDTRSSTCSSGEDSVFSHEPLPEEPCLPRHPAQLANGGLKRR
wild-type un-phosphorylated FGFR4, sequence (P22455 22-802): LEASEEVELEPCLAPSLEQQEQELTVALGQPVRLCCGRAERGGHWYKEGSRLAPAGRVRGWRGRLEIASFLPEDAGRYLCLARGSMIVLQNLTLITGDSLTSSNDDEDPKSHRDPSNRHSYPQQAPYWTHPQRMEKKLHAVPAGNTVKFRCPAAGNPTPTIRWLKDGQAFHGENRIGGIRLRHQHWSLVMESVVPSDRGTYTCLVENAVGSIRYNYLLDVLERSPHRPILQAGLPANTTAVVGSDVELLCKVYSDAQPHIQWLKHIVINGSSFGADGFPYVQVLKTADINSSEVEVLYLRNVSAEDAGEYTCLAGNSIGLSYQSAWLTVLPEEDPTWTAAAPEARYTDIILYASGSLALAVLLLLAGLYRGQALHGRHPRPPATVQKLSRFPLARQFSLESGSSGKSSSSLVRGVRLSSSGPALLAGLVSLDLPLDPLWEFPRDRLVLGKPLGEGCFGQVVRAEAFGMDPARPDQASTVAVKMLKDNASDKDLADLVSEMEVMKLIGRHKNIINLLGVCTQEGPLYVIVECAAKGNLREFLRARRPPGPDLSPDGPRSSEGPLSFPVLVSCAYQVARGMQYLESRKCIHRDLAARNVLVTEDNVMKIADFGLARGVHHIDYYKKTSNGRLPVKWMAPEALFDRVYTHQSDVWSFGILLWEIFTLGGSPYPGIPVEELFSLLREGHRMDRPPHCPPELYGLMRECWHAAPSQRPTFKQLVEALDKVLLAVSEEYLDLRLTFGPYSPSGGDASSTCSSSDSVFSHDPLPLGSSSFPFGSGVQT
wild-type un-phosphorylated FGFR3, sequence (P22607 23-806): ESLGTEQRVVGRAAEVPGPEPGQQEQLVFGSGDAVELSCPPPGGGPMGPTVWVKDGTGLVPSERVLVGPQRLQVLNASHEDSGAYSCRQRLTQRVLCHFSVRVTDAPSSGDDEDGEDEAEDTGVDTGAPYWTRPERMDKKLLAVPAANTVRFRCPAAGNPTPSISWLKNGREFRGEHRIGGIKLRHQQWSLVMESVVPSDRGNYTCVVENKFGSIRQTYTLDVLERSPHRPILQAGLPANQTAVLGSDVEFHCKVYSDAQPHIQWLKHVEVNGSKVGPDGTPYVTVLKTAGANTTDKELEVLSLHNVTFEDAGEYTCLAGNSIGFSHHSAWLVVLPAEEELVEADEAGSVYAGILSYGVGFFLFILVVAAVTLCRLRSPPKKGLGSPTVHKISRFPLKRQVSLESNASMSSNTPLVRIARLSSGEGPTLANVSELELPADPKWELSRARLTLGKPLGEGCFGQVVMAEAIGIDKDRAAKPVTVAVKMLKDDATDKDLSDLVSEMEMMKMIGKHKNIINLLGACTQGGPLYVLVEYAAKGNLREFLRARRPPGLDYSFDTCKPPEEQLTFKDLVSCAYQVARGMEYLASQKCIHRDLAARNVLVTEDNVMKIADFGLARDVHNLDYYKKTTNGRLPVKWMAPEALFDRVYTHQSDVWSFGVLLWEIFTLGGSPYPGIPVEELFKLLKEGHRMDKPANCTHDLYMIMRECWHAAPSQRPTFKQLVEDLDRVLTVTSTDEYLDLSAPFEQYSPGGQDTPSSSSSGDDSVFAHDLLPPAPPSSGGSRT

In the case of `COc1cc2[nH]nc(-c3ccc(C4CCN(C(C)C(N)=O)C4)nc3)c2nc1-c1cccc2c1CCC2` (single isomer, unassigned) [Example 107, 2-(3-(5-(5-(2,3-Dihydro-1H-inden-4-yl)-6-methoxy-1H-pyrazolo[4,3-b]pyridin-3-yl)pyridin-2-yl)pyrrolidin-1-yl)propanamide], the IC50 in experiment [1] was below 6 nM; in experiment [2] (setting [5]) it was 6 to 40 nM; in experiment [3] (setting [6]), 6 to 40 nM; in experiment [4], below 6 nM.

As for `COc1cc2[nH]nc(-c3ccc(CN4C[C@H]5C[C@@H]4CO5)nc3)c2nc1-c1cccc2c1CCC2` [Example 200, (1R,4R)-5-((5-(5-(2,3-Dihydro-1H-inden-4-yl)-6-methoxy-1H-pyrazolo[4,3-b]pyridin-3-yl)pyridin-2-yl)methyl)-2-oxa-5-azabicyclo[2.2.1]heptane], the IC50 in experiment [1] is below 6 nM; in experiment [2], 40 to 100 nM; in experiment [3] (setting [7]) it was 40 to 100 nM; in experiment [4], below 6 nM.

`COc1cc2[nH]nc(-c3cnn(C4CN(C(=O)[C@H]5C[C@H](O)C5)C4)c3)c2nc1-c1cccc2c1CCC2` [Example 125, (3-(4-(5-(2,3-Dihydro-1H-inden-4-yl)-6-methoxy-1H-pyrazolo[4,3-b]pyridin-3-yl)-1H-pyrazol-1-yl)azetidin-1-yl)((trans)-3-hydroxycyclobutyl)methanone]: the IC50 in experiment [1] was below 6 nM; in experiment [2] (setting [5]) it was 6 to 40 nM; in experiment [3] (setting [6]) it was 6 to 40 nM; in experiment [4], below 6 nM.

Regarding `COc1cc2[nH]nc(-c3cnn([C@H]4CCN(C(=O)[C@H]5C[C@@H](O)C5)C4)c3)c2nc1-c1cccc2c1CCC2` [Example 145, ((S)-3-(4-(5-(2,3-Dihydro-1H-inden-4-yl)-6-methoxy-1H-pyrazolo[4,3-b]pyridin-3-yl)-1H-pyrazol-1-yl)pyrrolidin-1-yl)((cis)-3-hydroxycyclobutyl)methanone], the IC50 is below 6 nM in experiment [1], 6 to 40 nM in experiment [2] (setting [5]), 6 to 40 nM in experiment [3] (setting [6]) and below 6 nM in experiment [4].

For `COc1cc2[nH]nc(-c3ccc(C4CCN(C(=O)CO)CC4)nc3)c2nc1-c1cccc(C)c1C` [Example 78, 1-(4-(5-(5-(2,3-Dimethylphenyl)-6-methoxy-1H-pyrazolo[4,3-b]pyridin-3-yl)pyridin-2-yl)piperidin-1-yl)-2-hydroxyethan-1-one], the IC50 was below 6 nM in experiment [1], above 100 nM in experiment [2], above 100 nM in experiment [3] (setting [7]) and below 6 nM in experiment [4].

Consider `COc1cc2[nH]nc(-c3cnn(C4CN(C(=O)C[C@@H](C)O)C4)c3)c2nc1-c1cccc2c1CCC2` [Example 134, (R)-1-(3-(4-(5-(2,3-Dihydro-1H-inden-4-yl)-6-methoxy-1H-pyrazolo[4,3-b]pyridin-3-yl)-1H-pyrazol-1-yl)azetidin-1-yl)-3-hydroxybutan-1-one], for which the IC50 in experiment [1] was below 6 nM; in experiment [2], 40 to 100 nM; in experiment [3] (setting [6]), 6 to 40 nM; in experiment [4], below 6 nM.

For `COc1cc2[nH]nc(-c3cnn(C4CN(C(=O)CCN(C)C)C4)c3)c2nc1-c1cccc2c1CCC2` [Example 117, 1-(3-(4-(5-(2,3-Dihydro-1H-inden-4-yl)-6-methoxy-1H-pyrazolo[4,3-b]pyridin-3-yl)-1H-pyrazol-1-yl)azetidin-1-yl)-3-(dimethylamino)propan-1-one], the IC50 in experiment [1] is below 6 nM; in experiment [2], 40 to 100 nM; in experiment [3] (setting [6]) it was 6 to 40 nM; in experiment [4], below 6 nM.

With `COc1cc2[nH]nc(-c3ccc(N4CCN(C(C)=O)CC4)cc3)c2nc1-c1cccc2c1CCC2` [Example 61, 1-(4-(4-(5-(2,3-Dihydro-1H-inden-4-yl)-6-methoxy-1H-pyrazolo[4,3-b]pyridin-3-yl)phenyl)piperazin-1-yl)ethan-1-one], the IC50 in experiment [1] is below 6 nM; in experiment [2], above 100 nM; in experiment [3] (setting [7]) it was 40 to 100 nM; in experiment [4], below 6 nM.

As to `COc1cc2[nH]nc(-c3cnn(C4CN(C(=O)N(C)C)C4)c3)c2nc1-c1cccc(C)c1F` [Example 52, 3-(4-(5-(2-Fluoro-3-methylphenyl)-6-methoxy-1H-pyrazolo[4,3-b]pyridin-3-yl)-1H-pyrazol-1-yl)-N,N-dimethylazetidine-1-carboxamide], the IC50 in experiment [1] was below 6 nM; in experiment [2], above 100 nM; in experiment [3] (setting [7]) it was above 100 nM; in experiment [4] (setting [8]) it was 6 to 40 nM.

In the case of `COC(=O)N1CC(n2cc(-c3n[nH]c4cc(OC)c(-c5cccc6c5CCC6)nc34)cn2)C1` [Example 21, Methyl 3-(4-(5-(2,3-dihydro-1H-inden-4-yl)-6-methoxy-1H-pyrazolo[4,3-b]pyridin-3-yl)-1H-pyrazol-1-yl)azetidine-1-carboxylate], the IC50 in experiment [1] was below 6 nM; in experiment [2], 40 to 100 nM; in experiment [3] (setting [7]), 40 to 100 nM; in experiment [4], below 6 nM.

With `COc1cc2[nH]nc(-c3cnn(C)c3)c2nc1-c1cccc2c1CC(O)C2` (single isomer, unassigned) [Example 10, 4-(6-Methoxy-3-(1-methyl-1H-pyrazol-4-yl)-1H-pyrazolo[4,3-b]pyridin-5-yl)-2,3-dihydro-1H-inden-2-ol], the IC50 in experiment [1] was below 6 nM; in experiment [2], above 100 nM; in experiment [3] (setting [7]), 40 to 100 nM; in experiment [4] (setting [8]), 6 to 40 nM.

For the compound `COc1cc2[nH]nc(-c3cnn(C4CN(C(=O)[C@@H]5CCN5CCF)C4)c3)c2nc1-c1cccc2c1CCC2` [Example 141, (S)-(3-(4-(5-(2,3-Dihydro-1H-inden-4-yl)-6-methoxy-1H-pyrazolo[4,3-b]pyridin-3-yl)-1H-pyrazol-1-yl)azetidin-1-yl)(1-(2-fluoroethyl)azetidin-2-yl)methanone], the IC50 in experiment [1] is below 6 nM; in experiment [2] (setting [5]), 6 to 40 nM; in experiment [3] (setting [6]) it was 6 to 40 nM; in experiment [4], below 6 nM.

On to `COc1cc2[nH]nc(-c3cnn(C4CN(C(=O)[C@H]5C[C@@H](OC)C5)C4)c3)c2nc1-c1cccc2c1CCC2` [Example 153, (3-(4-(5-(2,3-Dihydro-1H-inden-4-yl)-6-methoxy-1H-pyrazolo[4,3-b]pyridin-3-yl)-1H-pyrazol-1-yl)azetidin-1-yl)((1s,3s)-3-methoxycyclobutyl)methanone], for which the IC50 in experiment [1] is below 6 nM; in experiment [2] it was 40 to 100 nM; in experiment [3] (setting [6]), 6 to 40 nM; in experiment [4], below 6 nM.

As to `COc1cc2[nH]nc(-c3ccc(N4CCOCC4)nc3)c2nc1-c1cccc2c1CCC2` [Example 58, 4-(5-(5-(2,3-Dihydro-1H-inden-4-yl)-6-methoxy-1H-pyrazolo[4,3-b]pyridin-3-yl)pyridin-2-yl)morpholine], the IC50 in experiment [1] is below 6 nM; in experiment [2], 40 to 100 nM; in experiment [3] (setting [7]), 40 to 100 nM; in experiment [4], below 6 nM.

In the case of `COc1cc2[nH]nc(-c3ccc(C4CCN(C(C)=O)C4)nc3)c2nc1-c1cccc2c1CCC2C#N` (single isomer, unassigned) [Example 183, 4-(3-(6-(1-Acetylpyrrolidin-3-yl)pyridin-3-yl)-6-methoxy-1H-pyrazolo[4,3-b]pyridin-5-yl)-2,3-dihydro-1H-indene-1-carbonitrile], the IC50 in experiment [1] is below 6 nM; in experiment [2] (setting [5]) it was 6 to 40 nM; in experiment [3] (setting [6]), 6 to 40 nM; in experiment [4] it was below 6 nM.

For `COc1cc2[nH]nc(-c3ccc(N4CCCC4)nc3)c2nc1-c1cccc2c1CCC2` [Example 57, 5-(2,3-Dihydro-1H-inden-4-yl)-6-methoxy-3-(6-(pyrrolidin-1-yl)pyridin-3-yl)-1H-pyrazolo[4,3-b]pyridine], the IC50 in experiment [1] was below 6 nM; in experiment [2], above 100 nM; in experiment [3] (setting [7]), above 100 nM; in experiment [4], below 6 nM.

Take `Cc1cc2[nH]nc(-c3cnn(C)c3)c2nc1-c1cccc(C)c1C` [Example 40, 5-(2,3-Dimethylphenyl)-6-methyl-3-(1-methyl-1H-pyrazol-4-yl)-1H-pyrazolo[4,3-b]pyridine]: the IC50 in experiment [1] is below 6 nM; in experiment [2] it was above 100 nM; in experiment [3] (setting [7]) it was above 100 nM; in experiment [4] (setting [8]) it was 6 to 40 nM.

For the compound `COc1cc2[nH]nc(-c3cnn(C4CCN(C(C)=O)CC4)c3)c2nc1-c1cccc2c1CCC2C#N` (centres unmarked) [Example 112, 4-(3-(1-(1-Acetylpiperidin-4-yl)-1H-pyrazol-4-yl)-6-methoxy-1H-pyrazolo[4,3-b]pyridin-5-yl)-2,3-dihydro-1H-indene-1-carbonitrile], the IC50 was below 6 nM in experiment [1], 40 to 100 nM in experiment [2], 40 to 100 nM in experiment [3] (setting [7]) and below 6 nM in experiment [4].

Regarding `COc1cc2[nH]nc(-c3ccc(C4CCN(C(=O)N5CCOCC5)C4)nc3)c2nc1-c1cccc2c1CCC2C#N` (single isomer, unassigned) [Example 184, 4-(6-Methoxy-3-(6-(1-(morpholine-4-carbonyl)pyrrolidin-3-yl)pyridin-3-yl)-1H-pyrazolo[4,3-b]pyridin-5-yl)-2,3-dihydro-1H-indene-1-carbonitrile], the IC50 in experiment [1] is below 6 nM; in experiment [2] (setting [5]), 6 to 40 nM; in experiment [3] (setting [6]) it was 6 to 40 nM; in experiment [4] it was below 6 nM.

`COc1cc2[nH]nc(-c3ccc(N4CCOCC4)nc3)c2nc1-c1cccc(C)c1C` [Example 44, 4-(5-(5-(2,3-Dimethylphenyl)-6-methoxy-1H-pyrazolo[4,3-b]pyridin-3-yl)pyridin-2-yl)morpholine]: the IC50 in experiment [1] was below 6 nM; in experiment [2], above 100 nM; in experiment [3] (setting [7]), above 100 nM; in experiment [4] (setting [8]), 6 to 40 nM.
